The subject of this assay is rat MMT model. The experiment in a line: Rat medial meniscal tear (MMT) model, histopathological scoring of knee joints. It counts as in vivo. The conditions noted are these: for histology of medial tibia plateau (toluidine blue), cartilage-degenerative changes: 100 ng in 50 μL saline intra-articular, two times per week from 1 week post-surgery, 10 rats per group (Figure 7A); for total joint score: versus saline (Figure 7E). On the procedure:
We next tested whether peptide p[63−82] has the potency to delay the progression of trauma-induced cartilage degeneration in the rat MMT model.[34]^,[35] MMT damage was unilaterally initiated. Starting at 1 week post-MMT surgery, rats were two times per week intra-articularly injected with saline, 100 ng peptide p[63−82] in saline, or 100 ng scrambled peptide p[63−82] in saline. At 4 weeks post-MMT surgery, rats were sacrificed for histopathological scoring of the MMT knee joints. […] However, cartilage-degenerative changes were less apparent in the p[63−82] group (Figure 7A, middle panel). […] The femoral compartment also developed cartilage degeneration but less pronounced. This compartment is also more variable in its degenerative changes.[35] […] Cartilage-degeneration scores in zones 2 and 3 were generally low, as is known for the rat MMT model.[35] […] Other scored histopathological items can be found in Figure S5.
Figure 7 BMP7-derived peptide p[63−82] in rat MMT model The potency of BMP7 peptide p[63−82] to delay the progression of trauma-induced cartilage degeneration was tested in the rat MMT model. 1 week post-MMT-surgery, rats were two times per week intra-articularly injected with saline, 100 ng peptide p[63−82] in saline, or 100 ng scrambled peptide p[63−82] in saline (10 rats per group). All injection volumes were 50 μL. At 4 weeks post-MMT surgery, rats were sacrificed for histopathological scoring of the MMT knee joints. (A) Representative micrographs of toluidine blue-stained sections of medial aspects of the MMT knee joints. Conditions are indicated. (B) Medial tibia cartilage-degeneration scores. (C) Medial femur cartilage-degeneration scores. (D) Medial tibia cartilage-degeneration depth ratios. Scores and ratios are shown for zones 1, 2, and 3 individually.[35] The total scores/ratio are cumulative for zone 1, 2, and 3. (E) Total joint scores. Individual data points represent individual rats. Error bars represent mean ± SEM. Statistical differences were calculated between groups (Mann-Whitney U test), and ∗p < 0.05, ∗∗p < 0.01, and ∗∗∗p < 0.001.
The study was conducted via a contract research project at Bolder BioPATH (Boulder, CO, USA); study designs and animal usage were approved by their Institutional Animal Care and Use Committee (IACUC) prior to study initiation (IACUC protocols BBP13-029 and BBP12-004). Animal care, including room, cage, and equipment sanitation, conformed to accepted guidelines cited in the Guide for the Care and Use of Laboratory Animals (the Guide; 2011) and the applicable Bolder BioPATH standard operating procedures (SOPs). Male Lewis rats (n = 48; ∼283 g; Envigo RMS, Indianapolis, IN, USA) underwent a unilateral MMT on study day 0, as established earlier by Bendele et al.[59]^,[60] Rats were intra-articularly injected on days 7, 10, 14, 17, 21, and 24 with saline (0.9% NaCl, 50 μL/injection/animal), peptide p[63−82] (100 ng [in 50 μL saline]/injection/animal), or scrambled peptide p[63−82] (100 ng [in 50 μL saline]/injection/animal). The animals were euthanized for necropsy 28 days post-surgery.[59]^,[60] Right (surgery) knees from all animals were collected, trimmed of muscle (patella removed), and placed in 10% neutral-buffered formalin and then transferred to 70% ethanol for processing for microscopy. Operated joints were cut into two approximately equal halves in the frontal plane and embedded in paraffin. One section was cut from each knee and stained with toluidine blue. The worst-case scenario for the two halves on each slide was determined and used for evaluation. The tissues were analyzed microscopically by a veterinary pathologist as described earlier[35] (Tables S4–S13).

[1] abbreviates: 100 ng intra-articular two times per week, 4 weeks (Figures 7B, 7C).
Where [2] appears, read: 100 ng intra-articular two times per week, 4 weeks.
[3] abbreviates: 100 ng intra-articular two times per week, 4 weeks (Figure 7D).

For “H-SEASPAMYYLNATANFYESG-OH [scrambled p[63−82], scrambled version of peptide p[63−82], reference compound]”, the “histology of medial tibia plateau (toluidine blue), cartilage-degenerative changes” value (4 weeks) was “diminished toluidine blue staining and lower chondrocyte cellularity at the lateral side of the medial tibia plateau, as well as cartilage degeneration”. In addition, under setting [1], the “cartilage-degeneration scores of tibia or femur in any of the 3 zones, versus saline” value was “no statistically significant differences”; the “combined (total) tibia and femur cartilage-degeneration scores, versus saline” value is on record as “Neither was there a significant difference”. Moreover, the total joint score result under setting [2] is “in between the values for saline and p[63−82] peptide but was not statistically different compared to either one of the saline or p[63−82] conditions”.
For H-AAYYSEGESAFPLNSYMNAT-OH [p[63−82]], where the note is “4 weeks”, the “histology of medial tibia plateau (toluidine blue), cartilage-degenerative changes” value was “less apparent”. The “medial femur cartilage-degeneration score, zone 1, versus saline” value (100 ng intra-articular two times per week, 4 weeks (Figure 7C)) is “trend toward a statistically significant lower”. Moreover, under setting [3], the “depth ratio of tibia cartilage degeneration, zone 1, versus saline” value is recorded as “significantly lower” and the “total depth ratio score of tibia cartilage degeneration, versus saline” value is on record as “significantly lower”. Further, under setting [1], the “cartilage-degeneration scores, p[63-82] versus scrambled p[63-82]” value is listed as “did not reveal differences that were statistically significant”; the “combined (total) tibia and femur cartilage-degeneration scores, versus saline” value is “significantly lower”. For the same substance, under “100 ng intra-articular two times per week, 4 weeks, Mann-Whitney U test (Figure 7B)”, the “medial tibia cartilage-degeneration score, zone 1, versus saline” value was “significantly lower”. Besides, the total joint score entry under setting [2] is reported as “significantly lower”. The total joint score entry (100 ng intra-articular two times per week, 4 weeks, listed as p[62−83]) is “significantly improve”.
